Key:
human OX2 receptor = target: T1, human OX2 receptor (Homo sapiens, UniProt O43614); test: Measurement of orexin type 2 receptor agonist activity (calcium fluorescence, Fluo-4, FDSS); assay type: cell-based; conditions: 3 uM test compound; CHO cells expressing human OX2 receptor; DMSO = 0%, 10 nM orexin A (human) = 100%
T1 construct: expressed in transfected cells
T1 sequence (O43614 1-444): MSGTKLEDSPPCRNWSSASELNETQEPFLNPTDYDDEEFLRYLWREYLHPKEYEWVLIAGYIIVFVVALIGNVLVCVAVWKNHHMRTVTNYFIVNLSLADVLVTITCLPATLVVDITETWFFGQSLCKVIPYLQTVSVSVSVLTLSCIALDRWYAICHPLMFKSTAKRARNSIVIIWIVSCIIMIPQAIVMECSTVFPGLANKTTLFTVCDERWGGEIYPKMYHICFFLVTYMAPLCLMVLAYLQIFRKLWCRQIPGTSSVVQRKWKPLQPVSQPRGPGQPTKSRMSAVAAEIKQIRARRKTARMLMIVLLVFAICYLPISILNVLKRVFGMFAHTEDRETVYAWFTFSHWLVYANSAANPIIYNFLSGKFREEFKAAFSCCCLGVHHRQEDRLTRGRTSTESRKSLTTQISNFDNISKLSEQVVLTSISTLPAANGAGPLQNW
Summary of the method: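 Agonist activity (%) was normalised to the response to 10 nM final human orexin A (100%) and to the DMSO vehicle (0%). The response was measured as the Fluo-4 calcium signal, read kinetically over 1 min 40 s after compound addition to Fluo-4/probenecid-loaded stable CHO-K1 clones expressing human OX2 (aa 1-444).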

cynomolgus monkeys = test: Evaluation of wake-promoting effects in cynomolgus monkeys (EEG, EMG, locomotor activity); assay type: in vivo, cynomolgus monkey; conditions: Macaca fascicularis, po; 1 mg/kg, p.o., at zeitgeber time 12; 4 hours after administration; male cynomolgus monkeys; read-out: Wakefulness time (% of vehicle treatment) (Mean, n = 2-4)
Description: The wake-promoting effects were evaluated by measuring the electroencephalogram (EEG), electromyogram (EMG) and locomotor activity in cynomolgus monkeys. Under isoflurane anesthesia (0.5-5%, Pfizer Japan Inc., Tokyo, Japan), male cynomolgus monkeys (2-3 years old, Hamri Co., Ltd., Ibaraki, Japan) were surgically implanted with radio-telemetry transmitters (L03-F3, Data Sciences International Inc., MN, USA). The two EEG electrodes were stereotaxically positioned at the parietal area and secured to the cranium with stainless-steel screws in contact with the dura. Bilateral EMG electrodes were implanted into the back cervical muscles. After at least a 1-month recovery period in home cages, the monkeys were habituated to the recording chamber (an acrylic cage 60W×55D×75H (cm)) located in a soundproof and electrically shielded room by the time animals sleep sufficiently in the experimental room. Cortical EEG, EMG and locomotor activity were recorded using the telemetry system (PhysioTel Digital telemetry platform, Data Sciences International Inc.). The signals were semi-automatically scored in 20-second epochs by a sleep scoring system (SleepSign, Kissei Comtec Co., Ltd., Nagano, Japan).
Test compound (1 or 3 mg/kg) suspended in 0.5% methylcellulose aqueous solution or vehicle (i.e., 0.5% methylcellulose aqueous solution) was administered orally (p.o.) to monkeys at zeitgeber time 12 in a volume of 5 mL/kg body weight with a pretest-posttest design (n=2-4), and then EEG, EMG and locomotor activity were recorded for 4 hours after administration. The time spent in wakefulness for 4 hours after administration (% of vehicle treatment) was calculated by using SleepSign.

Row | OX2R agonist activity (3 uM, %) (human OX2 receptor) | SMILES | response vs control in vivo at 1 mg/kg (cynomolgus monkeys)
1 | 107% | CS(=O)(=O)N[C@@H]1CN2C(=O)N(c3noc4ccc(F)c(-c5c(F)cccc5F)c34)CC[C@@H]2C1(F)F [Example 265, N-{(4aR,6R)-2-[4-(2,6-difluorophenyl)-5-fluoro-1,2-benzoxazol-3-yl]-5,5-difluoro-1-oxooctahydropyrrolo[1,2-c]pyrimidin-6-yl}methanesulfonamide] | 472%
2 | 105% | CCS(=O)(=O)N[C@@H]1Cn2c(cn(-c3noc4cc(F)cc(-c5c(F)cccc5F)c34)c2=O)C1(F)F [Example 282, N-{(6R)-2-[4-(2,6-difluorophenyl)-6-fluoro-1,2-benzoxazol-3-yl]-7,7-difluoro-3-oxo-2,5,6,7-tetrahydro-3H-pyrrolo[1,2-c]imidazol-6-yl}ethanesulfonamide] | 418%

From patent US11987586B1 (TAKEDA PHARMACEUTICAL COMPANY LIMITED, priority 2022, dated 2024)
